Measurements taken from US20050233304A1, “Method of screening remedy for renal failure” (YAMANOUCHI PHARMACEUTICAL CO., LTD., priority 2002, published 2005).

Assays:
Assay type in all cases: cell-based
[1] = molecular target: T1, human FGK (Homo sapiens, UniProt Q9BXA5, A284G/P282A); assay: Screening of substances inhibiting FGK activity: pEF-BOS-Gqi + pSRE-luc luciferase reporter in HEK293 cells transfected with human FGK; settings: pEF-BOS-Gqi and human FGK plasmid, 24 hours with compound, DMSO control = 100%, read-out: Example 5 Inhibition of pGqi + pSRE-luc reporter activity IC50
T1 construct: A complete cDNA coding for the FGK of the present invention was obtained by PCR using a human kidney cDNA; expressed in transfected cells; host or cells: HEK293 cells (ATCC), transient transfection with FuGENE6
T1 sequence (Q9BXA5 5-334 P282A/A284G): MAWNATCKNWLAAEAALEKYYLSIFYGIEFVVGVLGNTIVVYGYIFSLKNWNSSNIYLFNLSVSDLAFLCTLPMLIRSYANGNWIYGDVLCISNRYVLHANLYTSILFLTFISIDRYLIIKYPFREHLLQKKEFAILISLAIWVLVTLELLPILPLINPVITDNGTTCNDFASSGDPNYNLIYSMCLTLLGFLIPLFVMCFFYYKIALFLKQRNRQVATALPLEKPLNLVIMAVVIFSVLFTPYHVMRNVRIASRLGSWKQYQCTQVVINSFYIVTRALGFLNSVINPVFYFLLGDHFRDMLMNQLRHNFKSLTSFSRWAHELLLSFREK
Protocol: An expression plasmid used in the Example for expressing a chimeric protein of Gq and Gi was prepared by cloning, a gene (hereinafter, to be referred to as Gqi gene) constructed by replacing 5 amino acids in the Gq C-terminal side (Glu-Tyr-Asn-Leu-Val; the amino acid sequence represented by SEQ ID NO:15) with 5 amino acids in the Gi C-terminal side (Asp-Cys-Gly-Leu-Phe; the amino acid sequence represented by SEQ ID NO:16) in accordance with the method of Conklin, B. R. et al. (Nature, 363, 274-276, 1993) into the plasmid pEF-BOS-dhfr. The constructed plasmid was named pEF-BOS-Gqi.
As the illustrative method, firstly, using Dulbecco's modified Eagle's medium (DMEM) containing 10% fetal bovine serum, HEK293 cells (obtained from ATCC) were dispensed in 1×10^5 cells per well portions into a 24-well plate (Asahi Technbglass) and cultured for 24 hours. Then transfection of 0.05 μg of a reporter plasmid pSRE-luc in which a serum response sequence was inserted into upstream of a luciferase gene (PathDetect™ SRE cis-Reporting System; Stratagene), 0.05 μg of pEF-BOS-Gqi and 0.5 μg at the maximum of a human FGK expression plasmid which is 0.6 μg in total per well was carried out using a transfection reagent (FuGENE6; Boehringer-Roche). Cells transfected with the pcDNA3.1 vector alone without containing FGK, together with the reporter plasmid and pEF-BOS-Gqi, was used as the control. Other conditions and measurement of the reporter activity were as described in Example 3. Increase in the reporter activity by the expression of FGK was observed. Additionally, dose-dependent activation by FGK was also observed.
Screening of a test substance was carried out using the screening system which uses changes in FGK activity as the index, constructed in Example 4.
Using 10% fetal bovine serum-containing Dulbecco's modified Eag;e's medium(DMEM),HEK293 cells(obtained from ATCC) were inoculated in 1×10^4 cells per well portions into a 96-well plate (Asahi Technoglass) and cultured at 37° C. for 24 hours. Transfection of 0.01 μg of the reporter plasmid pSRE-luc (Example 4), 0.03 μg of pEF-BOS-Gqi and 0.02 μg of a human FGK expression plasmid which is 0.06 μg in total per well was carried out using a transfection reagent (FuGENE6; Boehringer-Roche). After 6 hours of incubation at 37° C., a dimethyl sulfoxide solution of each test compound was added to become a final concentration of 30 μM, 10 μM, 3 μM, […], 0.3 μM or 0.1 μM, and then incubated at 37° C. for additional 24 hours. Thereafter, the reporter activity was measured to determine 50% activity inhibition concentration (IC50) of each test compound. As a control of the compound treatment, reporter activity when the same volume of dimethyl sulfoxide alone was added was regarded as 100%. Other conditions and measurement of reporter activity were as described in Example 4.

[2] = system: CTGF promoter activation by FGK; assay: Inhibition of CTGF promoter activation by FGK: pCTGF-luc reporter in HEK293 cells transfected with human FGK; settings: HEK293 cells transfected with pCTGF-luc and human FGK plasmid; 24 hours with compound; DMSO control = 100%; read-out: Example 7 Inhibition of pCTGF-luc activity IC50
Protocol: Using Dulbecco's modified Eagle's medium (DMEM) containing 10% fetal bovine serum, HEK293 cells (obtained from ATCC) were dispensed in 1×10^5 cells per well portions into a 24-well plate (Asahi Technoglass) and cultured at 37° C. for 24 hours. Transfection of 0.1 μg of a reporter plasmid and 0.5 μg at the maximum of a human FGK expression plasmid which is 0.6 μg in total per well was carried out using a transfection reagent (FuGENE6; Boehringer-Roche) in accordance with the instructions attached thereto. In this case, the amount of the transfected genes in each of the all wells was adjusted to 0.6 μg in total per well by adding a plasmid vector (pcDNA3.1; Invitrogen). Cells transfected with the pcDNA3.1 vector alone without containing FGK, together with the reporter plasmid, was used as the control. The medium was discarded 24 hours after transfection, and the residue was lysed by adding 100 μl per well of a cell lysis buffer. A […] portion of the lysate was mixed with 100 μl of a luciferin substrate solution and allowed to undergo the reaction to be measured using a luminometer (ML3000; Dynatech Laboratories). Activation of the CTGF promoter and COLIA2 promoter by the expression of FGK was observed. Additionslly, dose-dependent activation by FGK was also observed.
Screening of a test compound constructed in Example 3 was carried out using the CTGF promoter activation system by FGK.
HEK293 cells (obtained from ATCC) were plated at 1×10^4 cells per well into 96-well plates (Asahi Technoglass) in Dulbecco's modified Eagle's medium containing 10% fetal bovine serum (DMEM). After incubation for 24 hours at 37° C., cells were transfected with 0.02 μg of pCTGF-luc (cf. Example 2) and 0.02 μg of a human FGK expression plasmid which is 0.04 μg in total per well was carried out using a transfection reagent (FuGENE6; Boehringer-Roche). After incubation for 6 hours at 37° C., a dimethyl sulfoxide solution of each test compound was added thereto to become a final concentration of 30 µM, 10 μM, 3 μM, […], 0.3 μM or […], and then incubated at 37° C. for additional 24 hours. Thereafter, the reporter activity was measured to determine 50% activity inhibition concentration (IC50) of each test compound. As a control of the compound treatment, reporter activity when the same volume of dimethyl sulfoxide alone was added was regarded as 100%. Other conditions and measurement of reporter activity were as described in Example 3. Substances which inhibit CTGF promoter activation by FGK were selected, and the substances having an IC50 value of 10 μM or less were shown in Table 1. It was confirmed that a substance which inhibits CTGF expression by the assay system, namely a substance useful as a renal failure treating agent can be certainly be screened.

[3] = system: CTGF mRNA expression; assay: Inhibition of intrinsic CTGF mRNA expression in primary human proximal renal tubule epithelium cells (RPTEC), real time PCR; settings: 10 μM compound, 24 hours, CTGF/G3PDH, DMSO control = 100%
Protocol: Primary culture cells of human proximal renal tubule epithelium (RPTEC; Asahi Technoglass) were plated at 2×10^5 cells per well into 12-well plates (Asahi Technoglass) using a proliferation medium for kidney epithelial cell use (Burette Kit REGM; Asahi Technoglass). After incubation for 24 hours at 37° C., each of the test compounds obtained in Example 5 (substances which inhibit FGK activity, namely FGK inverse agonists) was added thereto to a final concentration of 10 μM, and then incubated for additional 24 hours at 37° C. Thereafter, the cells were collected and the total RNA was purified using a spin column (RNeasy Mini Kit; Qiagen). Reverse transcription reaction was carried out using 1.5 μg of the total RNA and a reverse transcriptase (PowerScript Transcriptase; BD Biosciences) to obtain cDNA samples. Using each of them as the template, expressed amounts of CTGF and a housekeeping gene of glyceraldehyde 3-phosphate dehydrogenase (to be referred to as G3PDH hereinafter) were measured by real time PCR using PRISM 7700 Sequence Detector (PERKIN ELMER). In the PCR, SYBR Green PCR Master Mix (Applied Biosystems) was used, and after heating at 50° C. (2 minutes) and 95° C. (10 minutes), a cycle of 95° C. (15 seconds)/60° C. (60 seconds) was repeated for 40 times. For the detection of CTGF, an oligonucleotide represented by SEQ ID NO:17 was used as the forward primer, and an oligonucleotide represented by SEQ ID NO:18 was used as the reverse primer. For the detection of G3PDH, an oligonucleotide represented by SEQ ID NO:19 was used as the forward primer and an oligonucleotide represented by SEQ ID NO:20 was used as the reverse primer. A value calculated by dividing the expressed amount of CTGF by the expressed amount of G3PDH, both obtained by the PCR, was defined as the CTGF expression quantity per unit RNA quantity. Also, as a control of the compound treatment, the CTGF expression quantity per unit RNA quantity when the same volume of dimethyl sulfoxide alone was added was regarded as 100%. The inhibitory activity of CTGF expression obtained by the assay (inhibitory activity at a compound concentration of 10 μM) is shown in Table 1.

SMILES | IC50 [1] [µM] | IC50 [2] [µM] | Example 6 Inhibition Intrinsic CTGF mRNA Expression at 10 μM [3] [%]
CCOc1ccc(Nc2nc(-c3sc(N)nc3C)cs2)cc1 [No 1, N^2-(4-ethoxyphenyl)-4′-methyl-4,5′-bi-1,3-thiazole-2,2′-diamine] | 6.1 | 14.1 | 62
COc1ccc(Cl)cc1Nc1nc(-c2cccs2)cs1 [No 2, N-(5-chloro-2-methoxyphenyl)-4-(2-thienyl)-1,3-thiazole-2-amine] | 4.6 | 16.1 | 72
CC(=O)Nc1nc(C)c(-c2csc(Nc3cccc(C)c3)n2)s1 [No 3, N-[4′-methyl-2-[(3-methylphenyl)amino]-4,5′-bi-1,3-thiazol-2′-yl]acetamide hydrobromate] | 0.6 | 2.6 | 79
CC(=O)Nc1ccc(-c2csc(Nc3cccc(C(F)(F)F)c3)n2)cc1 [No 4, N-[4-(2-{[3-(trifluoromethyl)phenyl]amino}-1,3-thiazol-4-yl)phenyl]acetamide] | 3.9 | 3.6 | 65
CC(=O)Nc1nc(C)c(-c2csc(Nc3ccc(O)cc3)n2)s1 [No 5, N-{2-[(4-hydroxyphenyl)amino]-4′-methyl-4,5′-bi-1,3-thiazol-2′-yl}acetamide hydrobromate] | 2.5 | 1.8 | 81
CCOC(=O)c1c(C)nn(-c2ccc(NC(=O)c3ccccc3C(=O)O)cc2)c1C [No 6, 2-[({4-[4-(ethoxycarbonyl)-3,5-dimethyl-1H-pyrazol-1-yl]phenyl}amino)carbonyl]benzoic acid] | 6.8 | 3.8 | 35
Cc1cc(C(=O)C(F)(F)F)c(C)n1-c1ccc(NC(=O)c2ccccc2F)cc1 [No 7, N-{4-[2,5-dimethyl-3-(trifluoroacetyl)-1H-pyrrol-1-yl]phenyl}-2-fluorobenzamide] | 3.1 | 1.7 | 36
